Reference: patent US20020082448A1, “Aminoguanidine carboxylates for the treatment of non-insulin-dependent diabetes mellitus” (The Upjohn Company, priority 1999, published 2002)
Like-named read-outs stand apart in the source and are kept apart here.

What was measured:
KKAy mice [1] = assay: Reduction of non-fasting blood glucose in KKAy mice, compound admixed in chow; type: in vivo, mouse; conditions: for % Change Blood Glucose: Day 3 vs Day-1
Text: (§1) KKAy mice are rodent models of NIDDM and obesity (Chang, Wyse, Copeland, Peterson, and Ledbetter, 1986). A pre-treatment blood sample was obtained from the retro-orbital sinus and the mice arranged in groups of 6 so that the mean pre-treatment blood glucose level was the same on average in all groups. […] Control mice received unsupplemented chow. On Day 0, the mice were weighed and provided control chow or chow supplemented with test compounds. After 3 days of consuming control chow or chow supplemented with test compounds, a blood sample was obtained for determination of the glucose concentration and the animals were weighed for determination of weight loss. Food consumption was measured by weighing the food provided at the beginning of the study and the food residue at the end of the study. Food consumption was calculated by subtracting the weight of the residue from the weight of the food provided. […] Blood glucose data are expressed as the average blood glucose concentration in the test group divided by the average blood glucose level in the control group (treatment/control or T/C). Compounds resulting in T/C values equal to or less than 0.90 are considered to be active anti-hyperglycemic agents. Weigh loss data are expressed as percent change in body weight. Compounds resulting in a decrease of 1% or more less than control in body weight over three days are considered to be active anti-obesity agents.

[2] = Body weight change in KKAy mice, compound admixed in chow; type: in vivo, mouse; conditions: for % Change Body Weight: Day 3 vs Day-1
Text: as §1, with “provided. Drug intake was calculated by multiplying food consumption by 0.5%.” for “provided.”

mice [3] = conditions: cited from earlier work
human serum albumin = human serum albumin (Homo sapiens, UniProt P02768); assay: Non-enzymatic glycosylation of human serum albumin, [14C]-glucose incorporation; type: biochemical; conditions: for non-enzymatic glycosylation of human serum albumin in vitro: Table 8 assay; for % [14C-glucose] Incorporated: test compound 19.1 mM, 100 mM [14C]-D-glucose, human serum albumin, 37° C., 8 days, control 1.50
Sequence of human serum albumin (P02768 25-609): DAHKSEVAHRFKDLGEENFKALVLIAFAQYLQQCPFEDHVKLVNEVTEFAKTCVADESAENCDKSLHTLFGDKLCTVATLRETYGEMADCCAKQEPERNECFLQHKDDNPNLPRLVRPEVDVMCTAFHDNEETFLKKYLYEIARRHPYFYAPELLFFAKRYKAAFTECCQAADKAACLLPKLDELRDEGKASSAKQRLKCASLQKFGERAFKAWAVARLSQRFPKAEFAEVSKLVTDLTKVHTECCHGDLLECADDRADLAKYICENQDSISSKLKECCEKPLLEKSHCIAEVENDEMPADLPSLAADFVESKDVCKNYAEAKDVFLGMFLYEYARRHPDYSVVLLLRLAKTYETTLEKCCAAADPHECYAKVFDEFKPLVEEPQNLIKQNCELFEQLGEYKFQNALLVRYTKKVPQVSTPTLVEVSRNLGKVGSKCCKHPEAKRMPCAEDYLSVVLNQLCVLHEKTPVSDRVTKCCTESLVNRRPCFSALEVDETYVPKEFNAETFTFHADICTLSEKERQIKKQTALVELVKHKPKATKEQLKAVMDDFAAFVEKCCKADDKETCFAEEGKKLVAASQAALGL

rats [4] = conditions: cited from earlier work; for effect on hyperglycemia: chronic oral
proteins = conditions: in vitro; cited from earlier work
[5] = cited from earlier work
[6] = test system: advanced glycosylation endproducts; conditions: in vivo; cited from earlier work
C57BL mice = assay: Intraperitoneal glucose tolerance in non-diabetic C57BL mice; type: in vivo, mouse; conditions: for Blood Glucose: C57BL mice, 100 mg/kg oral gavage
KKAy mice [7] = assay: Intraperitoneal glucose tolerance in diabetic KKAy mice; type: in vivo, mouse; conditions: for Blood Glucose: KKAy mice, 100 mg/kg oral gavage
[8] = cited from earlier work; remark: listed apart in the source
rats [9] = conditions: cited from earlier work
[10] = test system: erythrocyte plasma membranes; conditions: incubated with glucose in vitro, cited from earlier work
mice [11] = conditions: cited from earlier work; for effect on hyperglycemia / effect on blood glucose concentration: chronic oral; for effect on blood glucose concentration: 250 mg/kg/day
[12] = cited from earlier work; remark: listed apart in the source
[13] = 0.5% in chow (approx. 500 mg/kg/day)
[14] = 30 min after 2 g/kg glucose I.P.
[15] = 60 min after 2 g/kg glucose I.P.
[16] = 90 min after 2 g/kg glucose I.P.
[17] = fasted 16-17 h, Time 0 (before 2 g/kg glucose I.P.)
[18] = 0.03% in chow (approx. 30 mg/kg/day)
[19] = 0.06% in chow (approx. 60 mg/kg/day)
[20] = 0.10% in chow (approx. 100 mg/kg/day)
[21] = 0.2% in chow (approx. 200 mg/kg/day)
[22] = 0.3% in chow (approx. 300 mg/kg/day)
[23] = 0.4% in chow (approx. 400 mg/kg/day)
[24] = normal or alloxan-diabetic rats

Compound: N=C(N)NCCC(=O)O [3-Guanidinopropionic acid]
- dose required to reduce the blood glucose level by 20% (KKAy mice [1]): 130 mg/kg/day
- % Change Blood Glucose (KKAy mice [1]; [13]): −38.4 ± 4.4 %
- % Change Body Weight [2, 13]: −5.4 ± 0.81 %
- glucose tolerance (mice [3]; diabetic KKAy mice, 1% admixture in chow, approximately 1000 mg/kg/day): improves glucose tolerance
- non-enzymatic glycosylation of human serum albumin in vitro (human serum albumin): no effect
- % [14C-glucose] Incorporated (human serum albumin): 1.52%

Compound: N=C(N)NN [Aminoguanidine]
- effect on blood glucose level (rats [4]; normal rodents or rats made diabetic by alloxan or streptozotocin): no effect
- non-enzymatic glycosylation of proteins (proteins): inhibit
- non-enzymatic glycosylation of human serum albumin in vitro (human serum albumin): effective
- % [14C-glucose] Incorporated (human serum albumin): 0.96 (P < 0.05 vs. Control) %
- effect on body weight ([5]; human and rats (Baylin et al.)): increase in body weight
- effect on body weight ([5]; normal or diabetic rats): no effect
- formation of advanced glycosylation endproducts [6]: inhibit

Compound: Cl.N=C(N)NNCC(=O)O [[2-(aminoiminomethyl)hydrazino]-, monohydrochloride acetic acid]
- non-enzymatic glycosylation of human serum albumin in vitro (human serum albumin): reduced
- % [14C-glucose] Incorporated (human serum albumin): 1.29 (P < 0.10 vs. Control) %

Compound: CCCCNC(=N)NC(=N)N [buformin]
- effect on blood glucose level (rats [4]; rats, acute administration, 132 mg/kg): did not affect

Compound: NNC(=NCC(=O)O)NN [N-(dihydrazinomethylene)-glycine]
- Blood Glucose (C57BL mice; [14]): 174 ± 17 mg/dL
- Blood Glucose (C57BL mice; [15]): 153 ± 7 mg/dL
- Blood Glucose (C57BL mice; [16]): 161 ± 19 mg/dL
- Blood Glucose (C57BL mice; [17]): 114 ± 9 mg/dL
- fasting blood glucose concentration (C57BL mice; normal C57BL mice, 100 mg/kg): decreased
- glucose tolerance (C57BL mice; normal C57BL mice, 100 mg/kg): improved glucose tolerance
- dose for a similar (25%) reduction in the blood glucose level (KKAy mice [1]): 30 to 60 mg/kg/day
- dose required to reduce the blood glucose level by 20% (KKAy mice [1]): 30 mg/kg/day
- % Change Blood Glucose (KKAy mice [1]; [18]): −13.5 ± 10.5%
- % Change Blood Glucose (KKAy mice [1]; [19]): −34.9 ± 17.1 %
- decrease in the blood glucose level (KKAy mice [1]; 60 mg/kg/day, 4 days): 35%
- % Change Blood Glucose (KKAy mice [1]; [20]): −45.2 ± 6.4 %
- % Change Blood Glucose (KKAy mice [1]; [21]): −69.9 ± 3.2 ¶ %
- % Change Blood Glucose (KKAy mice [1]; [22]): −70.4 ± 1.5 ¶ %
- % Change Blood Glucose (KKAy mice [1]; [23]): −70.3 ± 3.9 ¶ %
- % Change Body Weight [2, 18]: −0.92 ± 0.35%
- % Change Body Weight [2, 19]: −1.51 ± 2.11%
- % Change Body Weight [2, 20]: −4.04 ± 0.76 %
- decrease in the body weight ([2]; 100 mg/kg/day, 4 days): 4%
- % Change Body Weight [2, 21]: −8.22 ± 1.05 %
- % Change Body Weight [2, 22]: −9.94 ± 1.62 ¶ %
- % Change Body Weight [2, 23]: −10.3 ± 0.97 ¶ %
- Blood Glucose (KKAy mice [7]; [14]): 383 ± 38 mg/dL
- Blood Glucose (KKAy mice [7]; [15]): 396 ± 63 mg/dL
- Blood Glucose (KKAy mice [7]; [16]): 392 ± 67 mg/dL
- Blood Glucose (KKAy mice [7]; [17]): 115 ± 16 mg/dL
- glucose tolerance (KKAy mice [7]; diabetic KKAy mice, 100 mg/kg): improved glucose tolerance
- non-enzymatic glycosylation of human serum albumin in vitro (human serum albumin): reduced
- % [14C-glucose] Incorporated (human serum albumin): 0.81 (P < 0.05 vs. Control) %

Compound: N/N=C(\N)NN [Diaminoguanidine]
- effect on blood glucose level (rats [4]; [24]): no effect
- non-enzymatic glycosylation of proteins (proteins): inhibit
- effect on body weight [5, 24]: does not affect
- formation of advanced glycosylation endproducts [6]: inhibit

Compound: CN(C)C(=N)N=C(N)N [Metformin]
- effect on hyperglycemia (rats [4]; Zucker fa/fa rats, 350 mg/kg/day): reduces hyperglycemia
- effect on hyperglycemia (rats [4]; neonatal streptozotocin-diabetic rats, 100 mg/kg/day): reduces hyperglycemia
- effect on blood glucose level (rats [4]; rats, acute administration, 264 mg/kg): did not affect
- effect on body weight ([8]; non-insulin dependent diabetic patients treated for one year (Bailey)): cause weight loss
- effect on body weight ([8]; obese non-insulin dependent diabetic patients, similar length of time (Multi-centre Study)): no significant effect
- glucose tolerance (rats [9]; normal rats, 750 mg/kg): not affect glucose tolerance
- oral glucose tolerance (rats [9]; streptozotocin-diabetic rats, 250 mg/kg): oral glucose tolerance was increased
- non-enzymatic glycosylation of erythrocyte plasma membranes ([10]; 0.5 and 5 micromoles per liter): inhibit non-enzymatic glycosylation
- non-enzymatic glycosylation of erythrocyte plasma membranes ([10]; 50 and 100 micromoles per liter): reverse effect
- glucose tolerance (mice [3]; normal mice, 50 mg/kg): not affect glucose tolerance
- oral glucose tolerance (mice [3]; normal mice, 250 mg/kg): oral glucose tolerance was increased
- effect on hyperglycemia (mice [11]; DBM mice, 400 mg/kg/day): reduces hyperglycemia
- dose required to reduce the blood glucose level by 25% (mice [11]; KKAy mice (Meglasson et al.)): 300 mg/kg/day
- effect on hyperglycemia (mice [11]; KKAy mice, 300 mg/kg/day or more): reduces hyperglycemia
- effect on blood glucose concentration (mice [11]; diabetic ob/ob mice): did not affect
- effect on blood glucose concentration (mice [11]; normal mice): did not affect
- effect on blood glucose concentration (mice [11]; streptozotocin-diabetic mice): did not affect
- effect on body weight ([12]; KKAy mice, 1700 mg/kg/day, not at lower doses): statistically significant weight loss
- effect on body weight ([12]; diabetic ob/ob mice, 240 mg/kg/day): did not cause weight loss
- effect on body weight ([12]; streptozotocin-diabetic mice, 60 mg/kg/day): did not cause weight loss
